# Assay results published in article PMC2790023 (Journal of medicinal chemistry, 2009).
# Entries after “also recorded” stand apart in the source; their conditions may differ.
# Experiments:
# HeLa cells [1] = test: AnnexinV/PI flow cytometry apoptosis assay; conditions: 20 μM, 24 h
# CaSki cells = test: AnnexinV/PI flow cytometry apoptosis assay; conditions: 20 μM, 24 h
# HeLa cells [2] = test: Cell numbers; assay type: cell-based; conditions: 20 μM, 24 h
# VHR = VHR (Homo sapiens, UniProt P51452); test: Ki determination, Michaelis-Menten kinetics with pNPP; assay type: biochemical
# [3] = tested on: VHR, PTP1B, CD45, HePTP, Shp2, and YopH; assay type: biochemical
# Chain of VHR (P51452 whole entry): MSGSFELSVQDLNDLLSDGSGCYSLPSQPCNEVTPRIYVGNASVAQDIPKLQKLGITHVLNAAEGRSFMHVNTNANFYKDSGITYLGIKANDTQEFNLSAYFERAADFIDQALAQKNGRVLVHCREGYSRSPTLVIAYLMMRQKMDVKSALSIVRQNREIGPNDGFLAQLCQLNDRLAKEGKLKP
SMILES,Percentage of AnnexinV/PI negative cells versus vehicle (HeLa cells [1]),Percentage of AnnexinV/PI negative cells versus vehicle (CaSki cells),"HeLa cell numbers, percentage of the DMSO control (HeLa cells [2])",Inhibition pattern (Lineweaver-Burk plot) (VHR),"Ki (VHR; Ki, pNPP substrate) [nM]",Selectivity for VHR in counter screen [3]
O=C1/C(=C/c2cn(-c3ccccc3)nc2-c2ccc(OCc3ccccc3Cl)cc2)SC(=S)N1CCS(=O)(=O)O [SA2],no difference,no difference,,,,
O=C1/C(=C/c2cn(-c3ccccc3)nc2-c2ccc(OCc3ccccc3F)cc2)SC(=S)N1CCS(=O)(=O)O [SA3],no difference,no difference,less than 50%,,,
"O=C1/C(=C/C=C/c2ccccc2)SC(=S)N1CCS(=O)(=O)O [compound 1, 2-((Z)-4-oxo-5-((E)-3-phenylallylidene)-2-thioxothiazolidin-3-yl)ethane-sulfonic acid]",,,,competitively inhibited VHR; also recorded: clear competitive inhibition pattern,809,selectively inhibiting VHR; also recorded: selective for VHR
"COc1ccc(OC)c2c1C(=O)c1ccccc1C2=O [compound 8, 1,4-dimethoxyanthracene-9,10-dione]",,,,,,selectively inhibiting VHR; also recorded: selective for VHR
